System: E. coli (Escherichia coli)
Assay: Antibacterial test, MIC by standard dilution method (O.D. 600)
Format: cell-based
Conditions: FIG. 4
Protocol: The minimum inhibitory concentration (MIC) value of a carbon quantum dot was determined by a standard dilution method in a variety of tested bacterial strains, including E. coli (Escherichia coli), P. aeruginosa (Pseudomonas aeruginosa), S. enteritidis (Salmonella enterica), S. aureus (Staphylococcus aureus), MRSA (Methicillin-resistant Staphylococcus aureus, a multi-drug resistant Staphylococcus), S. iniae (Streptococcus iniae), and C. albicans (Candida albicans).
A single colony of each strain was removed from the culture medium, and inoculated in each suitable growth medium (10 mL). The cultured bacteria were grown at 37° C. with shaking (200 rpm), until the absorbance at 600 nm (O.D. 600) reaches 1.0 (optical path length: 1.0 cm). Each cell mixture was centrifuged at 1.0 mL (RCF 3,000×g, […], 25° C.), and washed twice with 5 mM sodium phosphate buffer (pH 7.4) before further use. The carbon quantum dots were mixed with a 10^5 CFU/mL bacterial solution, and the final concentration of the reaction bacterial solution was 10^4 CFU/mL. After reaction for 3 hours, each suitable growth medium was added. After 12 hours of incubation in the incubator at the culture temperature of each strain, the absorbance at 600 nm (O.D. 600) was measured.

NCCCCCCN [C, 1,6-diamino-hexane] was tested, and the “antibacterial ability (comparison in words)” value was “worst antibacterial effect”.

From patent publication US12509414B2, “Carbon quantum dot, a composition thereof and a method for treating infection by using same” (NATIONAL TAIWAN OCEAN UNIVERSITY, priority 2019, dated 2025)
